Data from patent US12275731B2, “Azaindole inhibitors of wild-type and mutant forms of LRRK2” (DANA-FARBER CANCER INSTITUTE, INC., priority 2018, dated 2025).

What was measured:
Assay in all cases: KinomeScan profiling
Assay type in all cases: binding
PLK1 = PLK1 (Homo sapiens, UniProt P53350); conditions: PLK1, 1 μM; read-out: % control
Method in brief: (§1)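 First, compounds in DMSO are added at 1 μM to each of 468 kinase assays. Next, RLU signals are normalised between positive control (0%) and DMSO (100%). Finally, kinases under 35% are flagged active.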

WNK1 = WNK1 (Homo sapiens, UniProt Q9H4A3); conditions: WNK1, 1 μM; read-out: % control
Method in brief: as §1

PIK3CA(H1047Y) = biological target: T1, PIK3CA(H1047Y) (Homo sapiens, UniProt P42336, H1047Y); conditions: read-out: % control
T1 construct: purchased KinomeScan® (panel service)
Method in brief: as §1

CDC2L5 = CDC2L5 (Homo sapiens, UniProt Q14004); conditions: CDC2L5, 1 μM; read-out: % control
Method in brief: as §1

MELK = MELK (Homo sapiens, UniProt Q14680); conditions: read-out: % control
Method in brief: as §1

PCTK1 = PCTK1 (Homo sapiens, UniProt Q00536); conditions: PCTK1, 1 μM; read-out: % control
Method in brief: as §1

IKK-epsilon = biological target: T2, IKK-epsilon (Homo sapiens, UniProt Q14164); conditions: read-out: % control
T2 construct: purchased KinomeScan®
T2 sequence (Q14164 1-716): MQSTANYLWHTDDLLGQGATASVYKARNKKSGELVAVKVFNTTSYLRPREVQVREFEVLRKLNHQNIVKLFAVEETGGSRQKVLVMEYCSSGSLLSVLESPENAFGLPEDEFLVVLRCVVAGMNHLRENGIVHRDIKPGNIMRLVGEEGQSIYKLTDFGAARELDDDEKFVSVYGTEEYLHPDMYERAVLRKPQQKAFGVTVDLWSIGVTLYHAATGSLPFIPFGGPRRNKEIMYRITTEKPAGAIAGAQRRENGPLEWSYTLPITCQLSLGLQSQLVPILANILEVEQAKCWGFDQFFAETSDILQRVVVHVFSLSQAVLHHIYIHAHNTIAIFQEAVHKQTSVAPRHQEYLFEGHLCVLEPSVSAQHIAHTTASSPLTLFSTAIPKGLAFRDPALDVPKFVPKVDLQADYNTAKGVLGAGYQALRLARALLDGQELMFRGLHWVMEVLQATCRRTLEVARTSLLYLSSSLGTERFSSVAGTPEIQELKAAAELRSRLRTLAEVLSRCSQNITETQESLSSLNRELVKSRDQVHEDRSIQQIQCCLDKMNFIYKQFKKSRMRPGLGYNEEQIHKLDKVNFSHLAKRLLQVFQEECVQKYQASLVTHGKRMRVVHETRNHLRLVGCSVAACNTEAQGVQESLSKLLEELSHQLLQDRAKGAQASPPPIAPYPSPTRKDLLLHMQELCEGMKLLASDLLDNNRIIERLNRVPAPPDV
Method in brief: as §1

FGFR3 = FGFR3 (Homo sapiens, UniProt P22607); conditions: FGFR3, 1 μM; read-out: % control
Method in brief: as §1

[1] = biological target: T3, TYK2(JH1domain-catalytic) (Homo sapiens, UniProt P29597); conditions: read-out: % control
T3 construct: tyrosine kinase 2 (TYK2)(JH1domain-catalytic)
T3 sequence (P29597 897-1176 limits assumed): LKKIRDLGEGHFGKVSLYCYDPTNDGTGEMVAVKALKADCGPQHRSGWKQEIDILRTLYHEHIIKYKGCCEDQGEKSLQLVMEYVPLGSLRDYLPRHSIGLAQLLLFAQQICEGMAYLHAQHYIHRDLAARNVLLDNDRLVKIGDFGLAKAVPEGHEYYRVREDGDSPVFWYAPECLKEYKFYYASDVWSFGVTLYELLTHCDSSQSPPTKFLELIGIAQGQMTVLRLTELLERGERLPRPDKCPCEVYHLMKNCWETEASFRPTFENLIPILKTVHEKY
Method in brief: as §1

ALK = biological target: T4, ALK (Homo sapiens, UniProt Q9UM73); conditions: read-out: % control
T4 construct: purchased KinomeScan®
Method in brief: as §1

[2] = biological target: T5, ABL1(F317I)-nonphosphorylated (Homo sapiens, UniProt P00519, F317I); conditions: read-out: % control
T5 construct: purchased KinomeScan®
Method in brief: as §1

HIPK2 = HIPK2 (Homo sapiens, UniProt Q9H2X6); conditions: HIPK2, 1 μM; read-out: % control
Method in brief: as §1

TSSK1B = biological target: T6, TSSK1B (Homo sapiens, UniProt Q9BXA7); conditions: read-out: % control
T6 sequence (Q9BXA7 1-367): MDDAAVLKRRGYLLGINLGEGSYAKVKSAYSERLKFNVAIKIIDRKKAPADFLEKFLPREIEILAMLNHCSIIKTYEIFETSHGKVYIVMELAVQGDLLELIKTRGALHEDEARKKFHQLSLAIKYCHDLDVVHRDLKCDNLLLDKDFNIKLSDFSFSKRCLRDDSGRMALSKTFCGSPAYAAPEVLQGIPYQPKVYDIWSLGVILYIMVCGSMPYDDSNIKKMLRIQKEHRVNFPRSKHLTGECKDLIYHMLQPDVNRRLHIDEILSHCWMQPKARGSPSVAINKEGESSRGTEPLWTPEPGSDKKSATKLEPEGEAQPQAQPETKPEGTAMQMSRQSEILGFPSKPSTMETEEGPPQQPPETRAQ
Method in brief: as §1

T4 sequence (Q9UM73 19-1620): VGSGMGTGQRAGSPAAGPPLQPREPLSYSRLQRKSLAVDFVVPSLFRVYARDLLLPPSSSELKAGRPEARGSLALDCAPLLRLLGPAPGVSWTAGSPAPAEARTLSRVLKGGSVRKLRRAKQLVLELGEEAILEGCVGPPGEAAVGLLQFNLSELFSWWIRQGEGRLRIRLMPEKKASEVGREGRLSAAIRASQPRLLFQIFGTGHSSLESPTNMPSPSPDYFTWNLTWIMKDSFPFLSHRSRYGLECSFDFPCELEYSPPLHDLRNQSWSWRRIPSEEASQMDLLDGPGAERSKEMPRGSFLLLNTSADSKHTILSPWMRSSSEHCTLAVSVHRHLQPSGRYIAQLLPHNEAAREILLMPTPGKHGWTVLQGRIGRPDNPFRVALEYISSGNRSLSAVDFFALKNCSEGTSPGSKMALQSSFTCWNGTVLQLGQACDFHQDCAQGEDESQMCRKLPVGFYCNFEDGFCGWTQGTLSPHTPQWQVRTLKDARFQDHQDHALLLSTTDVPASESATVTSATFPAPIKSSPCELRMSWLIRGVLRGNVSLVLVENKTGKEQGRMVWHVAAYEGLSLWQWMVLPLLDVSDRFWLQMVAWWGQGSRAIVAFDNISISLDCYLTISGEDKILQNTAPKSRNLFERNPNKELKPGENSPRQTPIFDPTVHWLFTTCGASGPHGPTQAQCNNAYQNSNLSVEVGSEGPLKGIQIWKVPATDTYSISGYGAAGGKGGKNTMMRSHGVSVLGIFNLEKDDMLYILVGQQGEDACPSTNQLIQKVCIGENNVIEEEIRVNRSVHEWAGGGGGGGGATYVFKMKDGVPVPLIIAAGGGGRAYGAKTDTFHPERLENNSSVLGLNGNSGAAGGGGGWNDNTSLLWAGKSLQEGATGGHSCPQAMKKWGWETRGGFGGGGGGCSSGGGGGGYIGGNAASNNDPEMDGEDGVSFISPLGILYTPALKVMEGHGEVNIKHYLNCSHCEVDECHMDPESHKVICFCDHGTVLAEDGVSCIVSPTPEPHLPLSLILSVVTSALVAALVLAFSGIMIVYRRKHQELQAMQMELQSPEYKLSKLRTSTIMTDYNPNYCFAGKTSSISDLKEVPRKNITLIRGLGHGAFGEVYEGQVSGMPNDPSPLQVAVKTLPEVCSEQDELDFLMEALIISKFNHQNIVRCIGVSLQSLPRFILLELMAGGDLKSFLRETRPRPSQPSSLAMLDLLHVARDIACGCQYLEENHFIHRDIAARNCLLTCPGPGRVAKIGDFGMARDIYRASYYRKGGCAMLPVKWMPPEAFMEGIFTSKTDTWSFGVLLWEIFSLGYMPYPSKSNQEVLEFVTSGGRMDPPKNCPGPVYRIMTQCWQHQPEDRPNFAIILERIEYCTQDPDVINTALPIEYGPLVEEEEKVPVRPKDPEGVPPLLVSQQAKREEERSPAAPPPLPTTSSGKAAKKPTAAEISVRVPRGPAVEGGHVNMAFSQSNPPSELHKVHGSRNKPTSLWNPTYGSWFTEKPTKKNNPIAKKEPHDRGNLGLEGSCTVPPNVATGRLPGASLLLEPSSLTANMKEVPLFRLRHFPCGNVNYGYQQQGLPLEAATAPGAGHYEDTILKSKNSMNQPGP
Chain of MELK (Q14680 whole entry): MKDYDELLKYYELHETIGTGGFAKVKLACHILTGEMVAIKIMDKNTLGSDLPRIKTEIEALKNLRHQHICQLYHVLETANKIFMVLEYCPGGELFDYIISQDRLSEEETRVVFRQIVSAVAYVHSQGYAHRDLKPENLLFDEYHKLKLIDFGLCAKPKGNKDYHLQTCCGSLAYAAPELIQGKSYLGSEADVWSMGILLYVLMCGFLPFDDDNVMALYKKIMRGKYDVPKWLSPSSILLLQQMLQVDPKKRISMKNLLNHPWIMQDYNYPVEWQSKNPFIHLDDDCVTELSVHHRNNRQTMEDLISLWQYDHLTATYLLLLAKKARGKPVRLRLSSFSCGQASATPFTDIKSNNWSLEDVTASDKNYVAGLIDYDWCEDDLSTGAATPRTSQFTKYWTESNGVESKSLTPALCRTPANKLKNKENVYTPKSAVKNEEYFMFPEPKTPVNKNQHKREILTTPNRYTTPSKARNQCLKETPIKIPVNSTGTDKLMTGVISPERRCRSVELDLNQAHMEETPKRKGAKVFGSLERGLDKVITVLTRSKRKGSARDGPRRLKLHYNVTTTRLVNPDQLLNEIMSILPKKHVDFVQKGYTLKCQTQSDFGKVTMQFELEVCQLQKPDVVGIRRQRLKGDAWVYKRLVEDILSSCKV
Chain of CDC2L5 (Q14004 whole entry): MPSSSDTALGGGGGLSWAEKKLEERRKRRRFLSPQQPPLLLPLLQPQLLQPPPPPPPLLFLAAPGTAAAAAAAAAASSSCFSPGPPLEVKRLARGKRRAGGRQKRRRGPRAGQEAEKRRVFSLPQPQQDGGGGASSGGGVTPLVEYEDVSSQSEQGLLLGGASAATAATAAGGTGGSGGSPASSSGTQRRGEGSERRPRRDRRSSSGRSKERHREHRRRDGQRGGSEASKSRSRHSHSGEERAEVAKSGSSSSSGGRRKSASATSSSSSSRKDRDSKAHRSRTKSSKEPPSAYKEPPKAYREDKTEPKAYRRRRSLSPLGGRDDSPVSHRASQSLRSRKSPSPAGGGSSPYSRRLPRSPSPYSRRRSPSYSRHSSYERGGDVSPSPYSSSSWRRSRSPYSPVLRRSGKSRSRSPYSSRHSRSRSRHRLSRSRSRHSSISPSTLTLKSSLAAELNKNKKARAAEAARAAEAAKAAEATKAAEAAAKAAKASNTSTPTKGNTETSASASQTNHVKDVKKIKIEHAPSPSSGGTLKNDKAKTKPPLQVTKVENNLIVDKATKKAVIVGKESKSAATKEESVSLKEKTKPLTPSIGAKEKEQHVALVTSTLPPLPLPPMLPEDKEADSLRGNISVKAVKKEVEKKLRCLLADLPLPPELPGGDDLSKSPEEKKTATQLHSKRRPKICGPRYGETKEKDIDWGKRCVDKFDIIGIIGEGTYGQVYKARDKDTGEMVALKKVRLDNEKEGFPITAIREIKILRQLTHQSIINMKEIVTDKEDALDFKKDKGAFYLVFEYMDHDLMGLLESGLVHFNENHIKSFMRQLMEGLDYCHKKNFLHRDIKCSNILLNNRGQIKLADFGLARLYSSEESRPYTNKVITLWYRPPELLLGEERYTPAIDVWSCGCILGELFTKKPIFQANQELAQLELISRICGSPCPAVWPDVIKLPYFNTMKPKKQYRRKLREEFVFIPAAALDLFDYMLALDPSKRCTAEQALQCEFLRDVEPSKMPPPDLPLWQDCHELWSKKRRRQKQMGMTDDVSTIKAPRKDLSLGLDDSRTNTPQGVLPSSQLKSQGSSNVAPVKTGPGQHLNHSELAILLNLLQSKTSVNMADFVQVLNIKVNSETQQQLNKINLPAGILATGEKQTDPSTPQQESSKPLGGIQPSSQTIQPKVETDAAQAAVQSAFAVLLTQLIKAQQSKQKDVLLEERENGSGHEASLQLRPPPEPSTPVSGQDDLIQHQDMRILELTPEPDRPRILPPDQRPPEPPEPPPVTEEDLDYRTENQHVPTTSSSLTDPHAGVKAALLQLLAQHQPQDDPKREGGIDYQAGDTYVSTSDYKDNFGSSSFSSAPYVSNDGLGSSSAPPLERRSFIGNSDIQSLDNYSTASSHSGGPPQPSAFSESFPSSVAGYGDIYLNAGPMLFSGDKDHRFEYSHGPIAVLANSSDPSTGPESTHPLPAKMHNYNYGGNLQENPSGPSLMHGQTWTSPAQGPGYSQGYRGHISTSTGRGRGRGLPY
T1 sequence (P42336 whole entry H1047Y): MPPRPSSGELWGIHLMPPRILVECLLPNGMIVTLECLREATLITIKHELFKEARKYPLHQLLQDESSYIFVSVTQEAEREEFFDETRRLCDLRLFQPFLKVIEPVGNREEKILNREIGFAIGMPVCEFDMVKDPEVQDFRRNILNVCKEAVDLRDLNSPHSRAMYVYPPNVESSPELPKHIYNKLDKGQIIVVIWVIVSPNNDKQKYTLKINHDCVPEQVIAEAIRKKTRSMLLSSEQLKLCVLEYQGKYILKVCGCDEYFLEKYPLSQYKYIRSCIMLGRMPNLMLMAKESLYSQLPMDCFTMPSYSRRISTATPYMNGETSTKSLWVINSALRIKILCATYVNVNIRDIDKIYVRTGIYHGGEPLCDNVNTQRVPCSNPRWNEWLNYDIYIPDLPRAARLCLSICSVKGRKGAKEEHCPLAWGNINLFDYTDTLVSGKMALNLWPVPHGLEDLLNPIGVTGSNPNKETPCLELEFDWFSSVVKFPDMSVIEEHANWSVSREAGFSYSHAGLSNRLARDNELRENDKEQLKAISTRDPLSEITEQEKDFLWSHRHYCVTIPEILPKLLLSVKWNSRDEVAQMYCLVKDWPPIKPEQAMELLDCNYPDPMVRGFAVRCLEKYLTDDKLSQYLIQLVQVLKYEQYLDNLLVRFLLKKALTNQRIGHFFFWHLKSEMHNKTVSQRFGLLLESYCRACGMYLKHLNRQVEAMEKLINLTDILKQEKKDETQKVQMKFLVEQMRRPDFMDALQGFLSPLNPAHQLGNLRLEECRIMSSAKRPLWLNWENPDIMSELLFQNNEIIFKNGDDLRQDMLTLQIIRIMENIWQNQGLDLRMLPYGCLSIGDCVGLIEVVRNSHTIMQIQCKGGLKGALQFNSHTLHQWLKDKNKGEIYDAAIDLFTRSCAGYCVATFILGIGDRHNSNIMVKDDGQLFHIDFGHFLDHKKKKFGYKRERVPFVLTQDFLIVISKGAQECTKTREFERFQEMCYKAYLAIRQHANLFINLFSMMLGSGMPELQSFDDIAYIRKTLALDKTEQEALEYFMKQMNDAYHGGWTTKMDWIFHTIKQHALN

Row | Compound | remaining binding at 1 µM (PLK1) | remaining binding at 1 µM (WNK1) | remaining binding at 1 µM (PIK3CA(H1047Y)) | remaining binding at 1 µM (CDC2L5) | remaining binding at 1 µM (MELK) | remaining binding at 1 µM (PCTK1) | remaining binding at 1 µM (IKK-epsilon) | remaining binding at 1 µM (FGFR3) | remaining binding at 1 µM [1] | remaining binding at 1 µM (ALK) | remaining binding at 1 µM [2] | remaining binding at 1 µM (HIPK2) | remaining binding at 1 µM (TSSK1B)
1 | CNc1c(-c2cnn([C@H]3CCN(C(C)=O)C[C@@H]3F)c2)cnc2[nH]cc(Cl)c12 [Compound 77, 1-((3S,4S)-4-(4-(3-chloro-4-(methylamino)-1H-pyrrolo[2,3-b]pyridin-5-yl)-1H-pyrazol-1-yl)-3-fluoropiperidin-1-yl)ethan-1-one] | 65% | 67% | 70% | 100% | 20% | 85% | 64% | 64% | 15% | 40% | 100% | 81% | 99%
2 | O=C(c1ccc(-c2cnc3[nH]cc(Cl)c3c2NC2CCCC2)cc1)N1CCC(N2CCOCC2)CC1 [Compound 101, (4-(3-chloro-4-(cyclopentylamino)-1H-pyrrolo[2,3-b]pyridin-5-yl)phenyl)(4-morpholinopiperidin-1-yl)methanone] | 98% | 90% | 100% | 2.1% | 30% | 100% | 99% | 67% | 100% | 75% | 100% | 100% | 41%
3 | CNc1c(-c2ccc(C(=O)N3CCC(N4CCOCC4)CC3)cc2)cnc2[nH]cc(Cl)c12 [Compound 96, (4-(3-chloro-4-(methylamino)-1H-pyrrolo[2,3-b]pyridin-5-yl)phenyl)(4-morpholinopiperidin-1-yl)methanone] | 64% | 80% | 84% | 100% | 16% | 86% | 68% | 82% | 29% | 46% | 100% | 74% | 100%
